Measurements as given in patent US7456152B2, “Peptide inhibitors of thrombin as potent anticoagulants” (priority 2004, dated 2008).
Several values for one entry are separate records, joined by “and”; a condition that tells them apart may be missing. Identical values can stand only once. Like-named read-outs stand apart in the source and are kept apart here. Ends that are not written are not given here.

Legend:
human α-thrombin [1] = biological target: T1, human α-thrombin (Homo sapiens, UniProt P00734); assay: Inhibition of the amidolytic activity of thrombin (Tos-Gly-Pro-Arg-p-nitroanilide hydrolysis); format: biochemical
T1 construct: Bovine and human α-thrombins were supplied by Haematologic Technologies Inc (VT, USA); cleaved off efficiently by thrombin to generate the free N-terminus of the A-chain of human thrombin; purchased Haematologic Technologies Inc (VT, USA)
Description: Kinetics of thrombin-catalyzed hydrolysis of the chromogenic substrate Tos-Gly-Pro-Arg-p-nitroanilide were followed by absorbance at 405 nm on a Spectramax plate reader thermostated at either 25° C. or 37° C. according to the method of Maragnore et al (supra). The concentrations of Tos-Gly-Pro-Arg-p-nitroanilide ranged from 2 to 400 μM. Initial rates were calculated under conditions of <15% hydrolysis of the total substrate. The KM and Vmax values were calculated accordingly and kcat values were determined by dividing Vmax by the enzyme (thrombin) concentration. The inhibition assays were performed in the clotting buffer with a certain fixed concentration of α-thrombin (˜0.3 nM) such that linear progress curves were achieved within at least 15 min in the absence of the inhibition. The total volume of the solution was fixed at 200 μl. Reactions were initiated by addition of the chromogenic substrate to the wells containing thrombin and a certain concentration of the peptide inhibitors premixed for less than 2 min. Alternatively, the substrate was first mixed with the peptide inhibitor and the total volume was adjusted to 120 μL using the clotting buffer. Eighty microliters of human α-thrombin in the clotting buffer (˜0.3 nM final concentration) was added to initiate the reaction. The concentration of the peptides ranged from 0.5 nM to 10 μM. Kinetics data from initial rate experiments were used to construct Lineweaver-Burke plot; i.e. the relationship of (substrate concentration)^−1 versus (initial velocity)^−1 which. were analysed by linear regression with MicroCal Origin 4.1 program (MicroCal, MD) or using the GraphPad Prism software. The Ki values of the inhibitors were determined using the equation: Ki=[I]/{(SL0/SL1)−1}, where
[I] is the inhibitor concentration,
SL0 is the slope of the reaction in the absence of inhibitors, and
SL1 is the slope of the reaction in the presence of the inhibitor.
Alternatively, Dixon plots of inverse velocity versus the inhibitor concentrations were generated with the Sigmaplot™ software. Every Dixon plot contained an array of data corresponding to different substrate concentrations and the Ki values were determined from the intersections. Following Peptide Cleavage by HPLC

human α-thrombin [2] = biological target: T1, human α-thrombin; assay: Clotting assay: fibrinogen clotting by human thrombin, concentration doubling the clotting time (DCT) = IC50; format: biochemical
Description: The clotting assays were carried out by use of the protocols described previously (DiMaio, J., Gibbs, B., Munn, D., Lefebvre, J., Ni, F., and Konishi, Y. (1990) J. Biol. Chem. 265, 21698-21703; and Witting, J. I., Bourdon, P., Brezniak, D. V., Maraganore, J. M., and Fenton, J. W. (1992) Biochem. J. 283 (Pt 3), 737-743) The assay employs bovine plasma fibrinogen dissolved at 0.1% in 50 mM Tris-Cl, 100 mM NaCl, 0.1% PEG-8000 at pH 7.6 (i.e. the clotting buffer). Each assay mixture contained a certain concentration of the peptide, and the reaction was started by the addition of human thrombin to a final concentration of 0.1 NIH unit/ml. Optical absorbance of the assay mixtures was measured at 420 nm and 37° C. using the Spectramax™ plate reader. The onset clotting time was determined as an intersection of the baseline and the initial slope of the O.D. change as a result of fibrin clot formation. The concentration of a peptide needed to double the clotting time (DCT) was defined as IC50. Peptide concentrations were determined by comparing the O.D.280 values of peptide stock solutions in the clotting buffer (vide supra) with the predicted extinction coefficient for each peptide (Gill, S. C. and von Hippel, P. H. (1989) Anal. Biochem. 182, 319-326).
The peptide concentration for doubling the clotting time (DCT) was defined as the IC50 value.

human α-thrombin [3] = biological target: T1, human α-thrombin; assay: Stability of peptides pre-incubated with thrombin, read by the clotting assay; format: biochemical; conditions: 30 hrs of incubation, 25° C.
Description: (§1) The FN22 peptide was incubated with thrombin at 25° C. in order to investigate the stability of the peptide in complex with thrombin. The progress of peptide cleavage by thrombin was monitored and analyzed through the HPLC profiles of the FN22 peptide in the absence or presence of thrombin for different incubation times. […] In the clotting assay, the FN22 peptide at a concentration of 400 nM was premixed with thrombin for different times of incubation before initiating the clotting reaction. The cleavage of the peptide by thrombin is indicated by a reduced clotting time with increasing incubation times. […]
In FIG. 18C, curve (1) represents the clotting assay curve recorded for a freshly-prepared stock solution of thrombin in the absence of peptide inhibitors, curves (2) and (3) represent the clotting curves recorded under the same condition as in (1) except that thrombin stood at 4° C. and 25° C., respectively, for 30 hrs, curves (4) and (5) represent the clotting curves recorded under the same condition as that in (3) except that the FN22 peptide (400 nM, curve 4) and FD22 (100 nM, curve 5) were mixed with thrombin during incubation, and curves (6) and (7) represent the clotting curves recorded under the same condition as that in (3) except that FN22 (400 nM, curve 6) and FD22 (100 nM, curve 7) were freshly-prepared intact peptides. […]

human α-thrombin [4] = biological target: T1, human α-thrombin; assay: Peptide cleavage by thrombin followed by HPLC; format: biochemical
Description: Previously reported methods (DiMaio, J., Gibbs, B., Munn; D., Lefebvre, J., Ni, F., and Konishi, Y. (1990) J. Biol. Chem. 265, 21698-21703; and Witting, J. I., Bourdon, P., Brezniak, D. V., Maraganore, J. M., and Fenton, J. W. (1992) Biochem. J. 283 (Pt 3), 737-743) were employed with some modifications (as detailed in the Results section and FIG. 18) to determine whether some bivalent peptides are cleaved by thrombin. Each peptide was dissolved in the clotting buffer at a final concentration of 2.0 μM and incubated at 25° C. with or without 2 μM of human α-thrombin for up to 40 hrs. The samples were then boiled for 2 min to stop the reaction, and centrifuged. The supernatant was acidified by addition of concentrated acetic acid before being loaded on an analytical HPLC C18 column and eluted with a linear gradient of 0%-50% (v/v) acetonitrile.
as §1, with “reaction.” for “reaction. The cleavage of the peptide by thrombin is indicated by a reduced clotting time with increasing incubation times.”

human α-thrombin [5] = biological target: T1, human α-thrombin; assay: Digestion of 15N-labelled FD22 at the Arg(P1)-Pro(P1′) bond by human α-thrombin; format: biochemical; conditions: ~1 mM 15N-labelled peptide, 5 μM human α-thrombin
Description: After the peptide was incubated with thrombin at 25° C. for 40 hrs, around 90% of the intact FD22 peptide still remained as shown by use of HPLC analysis (FIG. 18B). In the clotting assay, the FD22 peptide at 100 nM was premixed with thrombin for different times before initiation of clotting. The peptide thus prepared had the clotting time reduced by only 12% after 30 hrs of incubation with thrombin. Indeed, the ^15N-labelled FD22 with a concentration of ˜1 mM (FIG. 16D) was digested completely at the Arg(P1)-Pro(P1′) bond by a 5 μM concentration of human α-thrombin only after more than 60 hrs of incubation.

human α-thrombin [6] = biological target: T1, human α-thrombin; conditions: data from the published reports of DiMaio and Maraganore; read-out: Clotting assay, 37° C. (IC50); cited from earlier work
human α-thrombin [7] = biological target: T1, human α-thrombin; conditions: data from the published reports of DiMaio and Maraganore; read-out: Amidolytic assay (Ki); cited from earlier work
[8] = Amidolytic assay, 25° C. (Ki, nM), Tos-Gly-Pro-Arg-pNA, 25° C.

CC[C@H](C)[C@H](NC(=O)[C@H](CCC(=O)O)NC(=O)[C@H](CCC(=O)O)NC(=O)[C@H](Cc1ccccc1)NC(=O)[C@H](CC(=O)O)NC(=O)CNC(=O)[C@H](CC(=O)O)NC(=O)[C@H](CC(N)=O)NC(=O)[C@H](Cc1c[nH]cn1)NC(=O)[C@H](CO)NC(=O)[C@H](CCC(N)=O)NC(=O)[C@@H]1CCCN1C(=O)[C@H](CCCNC(=N)N)NC(=O)[C@@H]1CCCN1C(=O)[C@H](CC(=O)O)NC(=O)[C@@H](N)Cc1ccccc1)C(=O)N1CCC[C@H]1C(=O)N[C@@H](CCC(=O)O)C(=O)N[C@@H](CCC(=O)O)C(=O)N[C@@H](Cc1ccc(O)cc1)C(=O)N[C@@H](CC(C)C)C(=O)N[C@@H](CCC(N)=O)C(=O)O [FD22]
Ki (human α-thrombin [1]; [8]): ~55 nM | IC50 (human α-thrombin [2]): ~50 nM and 45 nM and ~45 nM | reduction of clotting time (human α-thrombin [3]; peptide 100 nM premixed with thrombin): 12% | intact peptide remaining (human α-thrombin [4]; incubated with thrombin at 25° C. for 40 hrs): around 90% | incubation time until complete digestion at the Arg(P1)-Pro(P1′) bond (human α-thrombin [5]): more than 60 hrs

CC[C@H](C)[C@H](NC(=O)[C@H](CCC(=O)O)NC(=O)[C@H](CCC(=O)O)NC(=O)[C@H](Cc1ccccc1)NC(=O)[C@H](CC(=O)O)NC(=O)CNC(=O)[C@H](CC(=O)O)NC(=O)[C@H](CC(N)=O)NC(=O)[C@H](Cc1c[nH]cn1)NC(=O)[C@H](CO)NC(=O)[C@H](CCC(N)=O)NC(=O)[C@@H]1CCCN1C(=O)[C@H](CCCNC(=N)N)NC(=O)[C@@H]1CCCN1C(=O)[C@H](CC(N)=O)NC(=O)[C@@H](N)Cc1ccccc1)C(=O)N1CCC[C@H]1C(=O)N[C@@H](CCC(=O)O)C(=O)N[C@@H](CCC(=O)O)C(=O)N[C@@H](Cc1ccc(O)cc1)C(=O)N[C@@H](CC(C)C)C(=O)N[C@@H](CCC(N)=O)C(=O)O [FN22]
Ki (human α-thrombin [1]; [8]): 80 ± 10 nM | kcat in the presence of the peptide (human α-thrombin [1]; FN22 at 80 μM, 130 without peptide): 115 s⁻¹ | mode of inhibition (human α-thrombin [1]; substrate concentrations near the KM): competitive | reduction of clotting time compared to the control (human α-thrombin [3]; peptide 400 nM premixed with thrombin): 41% | peptide cleaved by thrombin (human α-thrombin [4]; 2.0 μM peptide, 2.0 μM human α-thrombin, 25° C., after 40 hours): about 30%

CC[C@H](C)[C@H](NC(=O)[C@H](CCC(N)=O)NC(=O)[C@@H]1CCCN1C(=O)[C@H](CCCNC(=N)N)NC(=O)[C@@H]1CCCN1C(=O)[C@H](CCC(N)=O)NC(=O)[C@@H](NC(=O)[C@H](CO)NC(=O)CN)[C@@H](C)CC)C(=O)N[C@@H](Cc1c[nH]cn1)C(=O)N[C@@H](CC(N)=O)C(=O)N[C@@H](CC(=O)O)C(=O)NCC(=O)N[C@@H](CC(=O)O)C(=O)N[C@@H](Cc1ccccc1)C(=O)N[C@@H](CCC(=O)O)C(=O)N[C@@H](CCC(=O)O)C(=O)N[C@H](C(=O)N1CCC[C@H]1C(=O)N[C@@H](CCC(=O)O)C(=O)N[C@@H](CCC(=O)O)C(=O)N[C@@H](Cc1ccc(O)cc1)C(=O)N[C@@H](CC(C)C)C(=O)N[C@@H](CCC(N)=O)C(=O)O)[C@@H](C)CC [GS-IQ22-I]
Ki (human α-thrombin [1]; [8]): > 400 nM | amidolytic activity of thrombin in the presence of the peptide (human α-thrombin [1]; up to 400 nM in concentration): little affected | IC50 (human α-thrombin [2]): 10 ± 1 nM

FDPRPGGGGCNGDFEEIPEEYL [FD21-4GN]
Ki (human α-thrombin [1]; read-out: Amidolytic assay, 25° C. (Ki), Tos-Gly-Pro-Arg-pNA, 25° C.): 300 ± 20 nM | IC50 (human α-thrombin [2]; peptide concentration doubling the clotting time (DCT), 37° C., '>' values: no delay in clotting time up to the concentration shown, read-out: Clotting assay, 37° C. (IC50)): 208 ± 8 nM

FNPRP [FN, FNPRP]
Ki (human α-thrombin [1]; [8]): > 2000 nM | IC50 (human α-thrombin [2]): > 100000 nM | IC50 values (in words) (human α-thrombin [2]; clotting assay, FNPRP peptide alone): submillimolar

WDPRPQLHNDGDFEPIPEEYLQ [WD22-L-P]
Ki (human α-thrombin [1]; [8]): 39 ± 4 nM | IC50 (human α-thrombin [2]): ~26 nM and 26 nM

WDPRPQRHNDGDFEPIPEEYLQ [WD22-R-P]
Ki (human α-thrombin [1]): 171 ± 12 nM | IC50 (human α-thrombin [2]): ~6.7 nM and 6.7 nM

WDPRPQRHNDGDYEPIPEEYLQ [WD22-R-YP]
Ki (human α-thrombin [1]): 358 ± 23 nM | IC50 (human α-thrombin [2]): 4.5 ± 2 nM

dFPRPQSHNDGDFEEIPEEYL [P53^(e)]
IC50 (human α-thrombin [6]): 4.1 ± 0.8 nM | Ki (human α-thrombin [7]): 2.8 ± 0.9 nM
